# How the values were obtained:
# [1] = conditions identical to those used for 3; cited from earlier work
# Solubility in water = assay type: physicochemical; settings: pure H2O
# [2] = Potentiometric pH titrations, Hyperquad model; settings: for log(β): Hyperquad model, 100 mM KCl, 25° C.
# Excerpt: (§2) The speciation in water was more rigorously probed with potentiometric pH titrations. […] The quinolic protons likely deprotonate at higher pH values (pKa˜10), but we were unable to obtain the high pH data necessary to confirm this.
# (§3) The data were fit to a model containing the protonated forms of the free ligand and four Mn(II) complexes with the ligand in various protonation states: [Mn(H2qtp2)], [Mn(H3qtp2)]^+, [Mn(H4qtp2)]^2+, and [Mn(H4qtp2)]^3+ (Scheme 4).
# [3] = Stability in aerobic solution / to pH; assay type: physicochemical; settings: pH >10
# Method: Over this time, collected UV/vis spectra (FIGS. 2 & 3) display changes in the region between 200 nm and 300 nm which are consistent with the oxidation of the quinol to a para-quinone. Past 24 h, the solution begins to turn brown, consistent with oxidation of the manganese to Mn(III) and/or Mn(IV). For the spectrophotometric analysis, the Fe(ClO4)2 solution was added to a MeCN solution containing 0.10 mM [Mn(Hptp1)(MeCN)]^2+; the mixture was scanned at 0 min (dashed red), 30 min (dashed pink), and 60 min (dashed blue). […] At 15 h, approximately 11% of the Mn(II) has been displaced by Fe(II) as indicated by data in FIG. 3.
# The stability of 3 to air and adventitious metal ions was assessed primarily by UV/vis spectroscopy. […] Complex 3, however, is susceptible to metal exchange. When equimolar amounts of 3 and Fe(ClO4)2 are mixed in MeCN, 80% of the Mn(II) is replaced by Fe(II) by 3 h.
# [4] = T1-weighted relaxivity (r1) on 3 T clinical MRI scanner; assay type: physicochemical; settings: no oxidant; 50 mM HEPES pH 7.00, 3 T, 25° C.
# Excerpt: All MRI data were collected at the Auburn University MRI Research Center (Auburn, Ala.) on a Siemens Verio open-bore 3-T MRI clinical scanner. A 15-channel knee coil was used to simultaneously image 12-26 samples. An inversion recovery (IR) sequence was used that featured a non-selective adiabatic inversion pulse followed by a slice-selective gradient recalled echo (GRE) readout after a delay period corresponding to the inversion time (TI).^1-2 The GRE was a saturation readout, such that only one line of k-space was acquired per repetition time (TR). This method was selected to maximize both the signal strength and the accuracy of the T1 estimates. Specific imaging parameters were as follows: TR was set to 4 s, TI was varied from 4.8 to 2500 ms over 37 steps, the echo time (TE) was set to 3.6 ms, the flip angle equaled 90°, averages=1, slice thickness=5 mm, field of view=140×140 mm, matrix=128×128, resulting in a pixel size of 1.1×1.1×5.0 mm. All samples were run in 50 mM solutions of HEPES in water, buffered to pH 7.0 and kept at […]. The manganese content was systematically varied from 0.10 to 1.00 mM. The inverses of the T1 values were plotted versus the concentration of Mn(II) to obtain r1 values. All reported r1 values are averages from the results of two separate series of experiments. Each series of experiments used a different batch of 1.
# Image analysis was performed using custom Matlab programs (Mathworks, Natick, Mass.). The initial TI=4.8 ms image served as a baseline to determine circular region of interest (ROI) boundaries for each sample; from these, the mean pixel magnitudes for each ROI were calculated. For each of the 36 subsequent TI images, the same ROI boundaries were applied and the mean pixel magnitude calculations were repeated. This gave consistent ROI spatial definitions and a corresponding time course of magnitudes for each of the samples over all the TI time points. Each sample's complex phase was used to correct the magnitude polarity to produce a complete exponential T1 inversion recovery curve. The Nelder-Mead simplex algorithm^3 was applied to each sample's exponential curve to estimate its corresponding T1 value.
# (§1) For the relaxivity measurements, all samples were run in 298 K aqueous solutions containing 50 mM HEPES buffered to pH 7.00, using a 3 T field provided by a clinical MRI scanner. The data were fit to the indicated linear equations; the y-intercepts were within error of 1/T1 measurements associated with two control samples that contained no Mn(II): (A) 10 mM H2O2 in 50 mM HEPES buffer and (B) pure 50 mM HEPES buffer (both 0.46 s^−1).
# as §1, with “All” for “For the relaxivity measurements, all”, “s^−1). The oxidation of 1 by 2,3-dichloro-5,6-dicyano-1,4-benzoquinone (DDQ) occurred in CH2Cl2. After the reaction occurred, the 2,3-dichloro-5,6-dicyanoquinol product was removed via filtration, the CH2Cl2 was removed, and the sample was dissolve in HEPES buffer for MRI analysis. The other oxidation reactions occurred entirely in HEPES buffer.” for “s^−1).”
# The capability of 3 to serve as a MRI contrast agent was assessed with a 3 T clinical MRI scanner. All samples were run in 298 K aqueous solutions containing 50 mM HEPES buffered to pH 7.00, using a 3 T field provided by a clinical MRI scanner. All samples were prepared under air. The oxidized samples were prepared by directly adding H2O2 to solutions of 3 in aqueous solutions buffered to pH 7.0. The oxidation reactions were allowed to proceed for 30 min at 298 K before the T1 measurements were taken. […]
# [5] = Competitive binding assay with TPEN for log(K) of ligand binding to Mn(II); assay type: physicochemical
# Method: The log(K) was measured via a competitive binding assay between N,N,N′,N′-tetrakis(2-pyridylmethyl)ethylenediamine (TPEN) and the ligand (L). Various amounts of TPEN were added to a solutions of the ligand in MeCN-d3 and D2O.
# The log(K) for the complexation of H2qtp1 to Mn(II) was estimated through a titration with the metal-scavenging agent TPEN (N,N,N′,N′-tetrakis(2-pyridinylmethyl)ethylenediamine, log K=10.3). The ratios of free TPEN to free ligand were assessed by ^1H NMR.
# Given the known log(K) of 10.3 for TPEN's binding to Mn(II), a log(K) of 10.7 was thereby assigned for the coordination of H2qtp1 to Mn(II). […] The log(K) of 10.7 is nearly identical to the 10.6 value estimated for a related ligand from our laboratory that contains a para-methylphenol group in place of the H2qtp1's quinol.
# Excerpt for physchem: as §2, §3
molecule,measurement,setting,value
O.O.O.O.O.O.[Mn+2] [[Mn(H2O)6]^2+],"r1, previously found",[1],about 5.3 mM^−1s^−1
"cis-Dibromo(N,N′-bis(2,5-benzoquinone)-N,N′-bis(2-pyridinylmethyl)-1,2-ethanediamine)manganese(II) [Complex 4]",solubility in water,Solubility in water,poor and poor solubility
"Oc1ccc(O)c(CN(CCN(Cc2ccccn2)Cc2cc(O)ccc2O)Cc2ccccn2)c1 [Complex H4qtp2, N,N′-Bis(2,5-dihydroxybenzyl)-N,N′-bis(2-pyridinylmethyl)-1,2-ethanediamine]",log(β),[2],0.00
same,pKa,physchem; pKL1 (free ligand pKa),4.47
same,pKa,physchem; pKL2 (free ligand pKa),7.18
same,stability of ligand to pH,[3],degrades under basic conditions
Oc1ccc2c(c1)CN(Cc1ccccn1)CCN(Cc1ccccn1)Cc1cc(O)ccc1[O][Mn][O]2 [[Mn(H2qtp2)]],log(β),[2],−7.19 (±0.01)
same,percent formation of Mn(II) species,[2]; pH 7.0,40.3%
same,percent formation of Mn(II) species,[2]; pH 7.4,66.2%
"O.O=C([O-])CN(CCN(CC(=O)[O-])CC(=O)[O-])CC(=O)[O-].[Mn+2] [[Mn(EDTA)(H2O)]^2−, reference compound]",r1 (T1-weighted relaxivity),[4],1.73 mM⁻¹ s⁻¹
"Oc1ccc(O)c(CN(CCN(Cc2ccccn2)Cc2ccccn2)Cc2ccccn2)c1 [Complex H2qtp1, N-(2,5-Dihydroxybenzyl)-N,N′,N′-tris(2-pyridinylmethyl)-1,2-ethanediamine]",equilibrium constant for [Mn(L)(MeCN)]^2+ + TPEN → [Mn(TPEN)]^2+ + L,[5]; in both water and MeCN,0.4
same,log(K) for the coordination of ligand to Mn(II),"[5]; titration with TPEN, 1H NMR, water and MeCN",10.7
Oc1ccc(O)c(CN(CCN(Cc2ccccn2)Cc2cc(O)ccc2O)Cc2ccccn2)c1 [H5qtp2^+],log(β),[2],7.18 (±0.03)
Oc1ccc(O)c(CN(CCN(Cc2ccccn2)Cc2cc(O)ccc2O)Cc2ccccn2)c1 [H6qtp2^2+],log(β),[2],11.65 (±0.05)
